In ChEMBL document CHEMBL1201862, “PubChem BioAssay data set” (2004):
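Interpolation was linear, between the two tested concentrations surrounding the appropriate level; five concentrations were tested over 48 hours in 96-well plates. GI50: concentration for 50% inhibition of growth.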 Calls of active or inactive are those of the source. Rule as the data show it: active = GI50 up to about 1.1 µM and inactive = higher.

Experiments:
Experiment in all cases: DTP human tumour cell line panel, 48 h
786-0 = system: 786-0
COLO 205 = system: COLO 205
HOP-92 = system: HOP-92
IGROV-1 = system: IGROV-1
MOLT-4 = system: MOLT-4
OVCAR-8 = system: OVCAR-8
SF-539 = system: SF-539
SK-MEL-2 = system: SK-MEL-2
SK-MEL-5 = system: SK-MEL-5
SK-OV-3 = system: SK-OV-3
SN12C = system: SN12C
SNB-75 = system: SNB-75
UACC-62 = system: UACC-62
UO-31 = system: UO-31
HL-60 = system: HL-60
SF-295 = system: SF-295

Measured: GI50

Cn1c(=O)c2[nH]cnc2n(CC(N)=O)c1=O
inactive: 786-0 > 100 µM | COLO 205 > 100 µM | HOP-92 > 100 µM | IGROV-1 > 100 µM | MOLT-4 > 100 µM | OVCAR-8 > 100 µM | SF-539 > 100 µM | SK-MEL-2 > 100 µM | SK-MEL-5 > 100 µM | SK-OV-3 > 100 µM | SN12C > 100 µM | SNB-75 > 100 µM | UACC-62 > 100 µM | UO-31 > 100 µM

C/C(=N\NS(=O)(=O)c1ccc(C)cc1)C(CN1CCOCC1)C(c1ccccc1)c1c(O)c2ccccc2oc1=O (configuration not stated)
inactive: 786-0 > 100 µM | COLO 205 40.8 µM | HL-60 30.8 µM | HOP-92 59.8 µM | IGROV-1 > 100 µM | OVCAR-8 > 100 µM | SF-295 83 µM | SF-539 > 100 µM | SK-MEL-2 > 100 µM | SK-MEL-5 > 100 µM | SK-OV-3 > 100 µM | SN12C > 100 µM | SNB-75 > 100 µM | UACC-62 > 100 µM | UO-31 72.3 µM

CN(C)CCCSc1c2ccccc2nc2cc(NCC(=O)Nc3ccccc3-c3ccccc3NC(=O)CNc3ccc4c(SCCCN(C)C)c5ccccc5nc4c3)ccc12
inactive: 786-0 > 100 µM | COLO 205 45.1 µM | HL-60 18.3 µM | HOP-92 > 100 µM | IGROV-1 > 100 µM | MOLT-4 26.5 µM | OVCAR-8 > 100 µM | SF-295 > 100 µM | SF-539 > 100 µM | SK-MEL-2 > 100 µM | SK-MEL-5 > 100 µM | SK-OV-3 > 100 µM | SN12C > 100 µM | SNB-75 > 100 µM | UACC-62 > 100 µM | UO-31 > 100 µM

CC(C)(C)c1cc(Oc2ccc(C#N)c(C#N)c2)cc(C(C)(C)C)c1
inactive: 786-0 90.2 µM | COLO 205 > 100 µM | HL-60 > 100 µM | HOP-92 > 100 µM | IGROV-1 > 100 µM | MOLT-4 > 100 µM | OVCAR-8 > 100 µM | SF-295 > 100 µM | SF-539 > 100 µM | SK-MEL-2 > 100 µM | SK-MEL-5 > 100 µM | SK-OV-3 > 100 µM | SN12C > 100 µM | SNB-75 > 100 µM | UACC-62 > 100 µM | UO-31 > 100 µM

COc1ccc(-c2cc(-c3ccccc3)c(C#N)c(=O)[nH]2)cc1
inactive: 786-0 > 100 µM | COLO 205 > 100 µM | HL-60 > 100 µM | HOP-92 > 100 µM | IGROV-1 > 100 µM | MOLT-4 > 100 µM | OVCAR-8 > 100 µM | SF-295 > 100 µM | SF-539 > 100 µM | SK-MEL-5 > 100 µM | SK-OV-3 > 100 µM | SN12C > 100 µM | SNB-75 57.7 µM | UACC-62 > 100 µM | UO-31 > 100 µM

COc1cccc(-c2cc(C(=O)Nc3ccc(Cl)cc3)nc(N)n2)c1
inactive: 786-0 55 µM | COLO 205 21.4 µM | HL-60 32.7 µM | HOP-92 > 100 µM | IGROV-1 50.7 µM | MOLT-4 38.7 µM | OVCAR-8 98.9 µM | SF-295 87.9 µM | SF-539 40 µM | SK-MEL-2 > 100 µM | SK-MEL-5 55.6 µM | SK-OV-3 61 µM | SN12C 57.7 µM | SNB-75 21.4 µM | UACC-62 42.6 µM | UO-31 > 100 µM

COC(=O)c1c/c(=N\NC(=O)CC(=O)Nc2ccc(C)cc2)c2ccccc2o1
inactive: 786-0 > 100 µM | COLO 205 > 100 µM | HL-60 > 100 µM | HOP-92 > 100 µM | IGROV-1 > 100 µM | MOLT-4 > 100 µM | OVCAR-8 > 100 µM | SF-295 > 100 µM | SF-539 > 100 µM | SK-MEL-2 > 100 µM | SK-MEL-5 > 100 µM | SK-OV-3 > 100 µM | SN12C > 100 µM | SNB-75 > 100 µM | UACC-62 > 100 µM | UO-31 > 100 µM

CN1CCN(CCNc2ccc(CO)c3sc4ccccc4c(=O)c23)CC1
inactive: 786-0 5.87 µM | COLO 205 8.77 µM | HL-60 8.93 µM | HOP-92 13.4 µM | IGROV-1 11.1 µM | MOLT-4 3.15 µM | OVCAR-8 9.38 µM | SF-295 5.93 µM | SF-539 13.2 µM | SK-MEL-2 15 µM | SK-MEL-5 12.7 µM | SNB-75 9.48 µM | UACC-62 13 µM | UO-31 14.7 µM

CCN(CC)CC(C(=O)Nc1c(C)cccc1C)/C(C)=N\NC(=O)C[N+](C)(C)C (configuration not stated)
inactive: 786-0 > 100 µM | COLO 205 > 100 µM | HL-60 > 100 µM | HOP-92 > 100 µM | IGROV-1 > 100 µM | MOLT-4 > 100 µM | OVCAR-8 > 100 µM | SF-295 > 100 µM | SF-539 > 100 µM | SK-MEL-5 > 100 µM | SK-OV-3 > 100 µM | SN12C > 100 µM | SNB-75 > 100 µM | UACC-62 > 100 µM | UO-31 > 100 µM
